Data on five compounds can be found in article PMC6881533 (Journal of medicinal chemistry, 2019).

In one data set the target is T1, human CYP51 (WT) (Homo sapiens, UniProt Q16850).
T1 sequence (Q16850 1-509): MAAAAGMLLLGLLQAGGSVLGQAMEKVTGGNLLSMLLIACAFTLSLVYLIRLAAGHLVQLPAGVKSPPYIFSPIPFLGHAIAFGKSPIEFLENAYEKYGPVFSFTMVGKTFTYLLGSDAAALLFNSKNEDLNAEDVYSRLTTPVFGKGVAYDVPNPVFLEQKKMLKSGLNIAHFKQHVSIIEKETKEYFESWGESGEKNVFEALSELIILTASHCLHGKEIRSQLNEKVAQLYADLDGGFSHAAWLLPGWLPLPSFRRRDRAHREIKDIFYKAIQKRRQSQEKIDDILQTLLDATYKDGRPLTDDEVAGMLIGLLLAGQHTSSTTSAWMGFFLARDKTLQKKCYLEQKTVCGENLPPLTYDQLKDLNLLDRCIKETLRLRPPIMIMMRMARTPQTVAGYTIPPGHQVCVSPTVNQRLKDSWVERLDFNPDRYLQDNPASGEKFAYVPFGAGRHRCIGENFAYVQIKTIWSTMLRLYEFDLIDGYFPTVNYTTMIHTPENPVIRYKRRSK
In words: CYP51 activity assay, inhibition of lanosterol 14α-demethylation. Type of data set: biochemical. As to conditions: WT enzyme, 1 h reaction.

A further data set has as its target T2, human CYP51 (Homo sapiens, UniProt Q16850).
T2 sequence (Q16850 1-509): T1 sequence (Q16850 1-509)
As to the kind of experiment: CYP51 inhibitor binding assay.

For data set [1], the target named is T3, T318I mutant of human CYP51 (Homo sapiens, UniProt Q16850, T324I).
T3 sequence (Q16850 1-509 T324I): T1 sequence (Q16850 1-509) with T324I
As to the kind of experiment: CYP51 activity assay, inhibition of the T318I mutant. The class given is biochemical.

Data set [2] concerns the target T3, T318I mutant of human CYP51. In words: CYP51 inhibitor binding assay, T318I mutant.
The conditions of data set [3]: quoted in legend of Figure 1, reference not given; cited from earlier work.

Where a chain is given by its changes, count along the chain named. Where only a bound is given, the exact number is not on record here.

Take `O=C(N[C@@H](Cn1ccnc1)c1ccc(Cl)cc1Cl)c1ccc(-c2nnc(-c3ccccc3)o2)cc1` [VNI, (R)-N-(1-(2,4-dichlorophenyl)-2-(1 H-imidazol-1-yl)ethyl)-4-(5-phenyl-1,3,4-oxadiazol-2-yl)benzamide]: the “inhibition of human CYP51 activity (in words)” value at human CYP51 (WT) is reported as “does not inhibit the WT human CYP51 at all”. The Kd (usually the constant that tells how readily two partners part at equilibrium) on human CYP51 stood at 4.7 µM; in data set [2] it was 0.4 µM. Further, the concentration for half-maximal inhibition (IC50) (in general, the concentration needed to halve the response being measured) in data set [1] was greater than 25 µM. The “increase of binding affinity for the mutant” value in data set [2] (T318I vs WT enzyme) is reported as “approximately 12 fold”. Consider `CCC(C)n1ncn(-c2ccc(N3CCN(c4ccc(OCC5COC(Cn6cncn6)(c6ccc(Cl)cc6Cl)O5)cc4)CC3)cc2)c1=O` (stereo not drawn) [itraconazole], for which, in data set [3], the lipophilicity (log P) (usually a log measure of how a compound divides between an organic and an aqueous phase) is 6.8.

As for `C[C@@H](NCCCc1cccc(C(F)(F)F)c1)c1cccc2ccccc12` [cinacalcet], the lipophilicity (log P) in data set [3] is on record as 6.5. For `CC[C@@H]([C@H](C)O)n1ncn(-c2ccc(N3CCN(c4ccc(OC[C@@H]5CO[C@@](Cn6cncn6)(c6ccc(F)cc6F)C5)cc4)CC3)cc2)c1=O` [posaconazole], in data set [3], the log partition coefficient (log P) is reported as 5.5. Regarding `O=C(N[C@@H](Cn1ccnc1)c1ccc(-c2ccc(F)cc2)cc1F)c1ccc(-c2nnc(-c3ccccc3)o2)cc1` [VFV], on human CYP51 (inhibitor-bound human CYP51, red shift from 417 nm), the Soret band maximum is given as 425 nm.
